In one data set the test system is PC3. Briefly: MTT overall cell growth, PC3 cells. It counts as cell-based. The note with it: Homo sapiens, 72 h; PC-3; 3 days of culturing; mean of six determinations; read-out: IC50 (μM) In Vitro Growth Inhibition. Here is the method:
Tests were performed in order to rapidly, i.e. within 5 days, measure the effect of the compound of example 2 on the overall cell growth. The test measures the number of metabolically active living cells that are able to transform the yellow product 3-(4,5-dimethylthiazol-2-yl)-2,5-diphenyl tetrazolium bromide (herein referred as MTT) into the blue product formazan dye by mitochondrial reduction. The amount of formazan obtained at the end of the experiment, measured by means of a spectrophotometer, is directly proportional to the number of living cells. Optical density determination thus enables a quantitative measurement of the effect of the investigated compounds as compared to the control condition (untreated cells) and/or to other reference compounds. […]
(§1) After 72 hours of incubation at 37° C. with (experimental conditions) or without (control condition) the compound to be tested, the medium was replaced by 100 μl MTT dissolved in RPMI (1640 without phenol red) at a concentration of 1 mg/ml. […] The micro-wells were shaken for 5 minutes and read on a spectrophotometer at wavelengths of 570 nm (maximum formazan absorbance) and 630 nm (back-ground noise).
For each experimental condition, the mean optical density was calculated, as well as the percentage of remaining living cells in comparison with the control. […]

Another data set has as its system BxPC3. Kind of data set: MTT overall cell growth, BxPC3 cells. Format: cell-based. The note with it: Homo sapiens. Here is the method:
Tests were performed in order to rapidly, i.e. within 5 days, measure the effect of the compound of example 2 on the overall cell growth. The test measures the number of metabolically active living cells that are able to transform the yellow product 3-(4,5-dimethylthiazol-2-yl)-2,5-diphenyl tetrazolium bromide (herein referred as MTT) into the blue product formazan dye by mitochondrial reduction. The amount of formazan obtained at the end of the experiment, measured by means of a spectrophotometer, is directly proportional to the number of living cells. Optical density determination thus enables a quantitative measurement of the effect of the investigated compounds as compared to the control condition (untreated cells) and/or to other reference compounds.
Six human cancer cell lines described in table 1 were used in the following MTT tests. These cell lines cover six histological cancer types, being prostate, glioma, pancreas, colon, lung and breast cancers. Cells were allowed to grow in 96 well micro-wells with a flat bottom with an amount of 100 μl of cell suspension per well with 1,000 to 4,000 cells/well depending on the cell type used. Each cell line was seeded in a well known MEM 10% serum culture medium. […]
as §1
For each experimental condition, the mean optical density was calculated, as well as the percentage of remaining living cells in comparison with the control.
(§2) The overall growth of human cancer cell lines was determined by means of the calorimetric MTT (3-[4,5-dimethylthiazol-2-yl]-diphenyl tetrazolium bromide; Sigma) assay, as detailed previously.

The next data set deals with DU-145. Kind of data set: Cell cycle kinetics by flow cytometry (PI), DU-145. Format: cell-based, human. The settings on record: 1 μM. On the procedure:
The cell cycle kinetics of prostate cancer cells left untreated or incubated with UNBS5162 were determined by flow cytometry analysis of propidium iodide (PI) nuclear staining, using previously detailed methodology. Each sample was evaluated in triplicate. Flow cytometry was undertaken using an Epics XL.MCL flow cytometer and the FACScan/CellQuest software system (Becton Dickinson, Miami, Fla.).

For the next data set, the system named is HCT-15. Briefly: MTT colorimetric assay, HCT-15 cells. It counts as cell-based. The note with it: Homo sapiens, 72 h, 3 days of culturing, mean of six determinations, read-out: IC50 (μM) In Vitro Growth Inhibition. Here is the method:
as §2

A further data set relates to BFU-E. Kind of data set: HALO hematotoxicity assay, human BFU-E. It counts as cell-based. The note with it: 7 days culture, iATP. On the procedure: Investigation of the hematotoxic potential of UNBS5162 was undertaken by HemoGenix (Colorado Springs, Colo.). The effects of UNBS5162 on stem and progenitor cell populations from murine and human bone marrow were assessed using HALO (Hematopoietic/Hematotoxicity Assay through Luminescence Output) technology. Stem and hematopoietic progenitor cell populations were isolated from mouse and human bone marrow samples, plated at a concentration of 1.0×10^4 cells/well and cultured for 5 and 7 days, respectively, in the presence of growth factors and increasing concentrations of UNBS5162 ranging from 0.5 nM to 50 μM. The proliferative or growth potential of cell populations was determined from intracellular ATP (iATP) concentrations and a luciferin/luciferase bioluminescence signal detection system. All samples were assayed in eight replicates. The results are presented as estimated inhibitory concentration (IC) values.

Data set [1] deals with human PC-3 orthotopic xenografts. On the procedure: Orthotopic xenografts were obtained by injecting 2.5×10^6 human PC-3 or DU-145 cells into the prostate of 6-week-old male nu/nu mice (n=9 animals per treatment group). All grafts were performed under anesthesia [saline/Rompun (Bayer, Leverkusen, Germany)/Imalgene (Merial, Lyons, France); 5:1:1 by volume]. The end point in these orthotopic experiments was the survival period of the tumor-bearing mice after the administration of UNBS3157, UNBS5162, or reference anticancer agents (taxol, mitoxantrone, and amonafide). However, for ethical reasons, animals were killed when 20% of body weight had been lost compared to that determined at the time of tumor grafting. All animals were weighed three times a week. […] In the case of UNBS5162 experiments in the PC-3 model, after the sacrifice of animals, tumors were removed from both drug-treated [10 mg/kg, intravenous (i.v.)] and vehicle-treated mice, fixed in buffered formalin, embedded in paraffin, and 5-μm-thick sections taken. These histologic slides were then stained with hematoxylin and eosin for blood vessel counts.

A further data set deals with PC-3. Briefly: Autophagy: acidic vesicular organelles, acridine orange flow cytometry, PC-3. The note with it: red fluorescence, up to 10 μM. It counts as cell-based, human. On the procedure:
The cytoplasm and nucleus fluoresce green in acridine orange-stained cells, and the acidic compartments fluoresce red. The intensity of the red fluorescence is proportional to the degree of acidity and the volume of acidic vesicular organelles, including autophagic vacuoles. To quantify the development of acidic vesicular organelles, the cells were stained with acridine orange for 15 minutes and removed from the plate with trypsinization. Cells were then analyzed by flow cytometry. Each sample was evaluated in triplicate.

The structures appear in SMILES notation. Read-outs that look alike come from different tables or passages of the source.

These results are taken from US20090186915A1, “Compositions and methods for treatment of glioblastoma, gliosarcoma, NSCLC, and head and neck cancer” (Unibioscreen S. A., priority 2006, published 2009).

For `CN(C)CCN1C(=O)c2cccc3cc(NC(N)=O)cc(c23)C1=O` [UNBS5162, N-{2-[2-(dimethylamino)ethyl]-1,3-dioxo-2,3-dihydro-1H-benzo[de]isoquinolin-5-yl}urea], the IC50 with PC3 was 17.3 µM; in the data set on BxPC3 (BXPC-3, 72 h, Bx-PC-3, 3 days of culturing, mean of six determinations, read-out: IC50 (μM) In Vitro Growth Inhibition), 9.1 µM; in the data set on BxPC3 (BXPC-3, BxPC3, 72 hours incubation, range of molar concentrations, read-out: IC50), 5 to 10 µM; in the data set with HCT-15 it was 28.8 µM; in the data set on BFU-E (168 h), 3.6 µM. In addition, in the data set with DU-145, the cell cycle kinetics entry is “did not significantly (P>0.05) modify”. Also, in the data set with BFU-E (168 h), the IC90 came to 17.6 µM. Further, in the data set with BFU-E, the IC75 turned out to be 8.16 µM. Moreover, in data set [1] (PC-3 orthotopic model, 10 mg/kg i.v.), the “angiogenesis in tumors (histopathology, blood vessel counts)” value is “anti-angiogenic properties in vivo”. Moreover, in data set [1] (PC-3 orthotopic model, 10 mg/kg i.v. three times a week for 6 consecutive weeks), the “therapeutic benefit (survival)” value is “therapeutic benefits that were similar to repeat i.v. administration (once a week for 6 consecutive weeks) of 20-mg/kg taxol”. Further, the “therapeutic benefit (survival) in combination” value in data set [1] (PC-3 orthotopic model, UNBS5162 10 mg/kg i.v. at the same time as taxol 20 mg/kg i.v.) is reported as “significantly (P<0.01) increased the therapeutic benefit contributed by taxol alone”; in data set [1] (PC-3 orthotopic model, UNBS5162 before or after taxol) it was “did not modify the therapeutic benefit contributed by taxol alone”. For the same compound, the “toxicity of combined treatment (mouse weight, behavior)” value in data set [1] (mouse, in vivo) was “did not contribute higher toxicity”. Moreover, the “pro-autophagic effects (acidic vesicular organelles)” value is “had a proautophagic effect” with PC-3 and “pro-autophagic effects” in the data set with PC-3 (listed as example 2).
